Laboratory results: PubChem BioAssay (NCI)
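1) Cells in 96-well plates. 2) Compound, 48 h, 5 concentrations. 3) Linear interpolation between surrounding doses. 4) Unreached endpoint = highest concentration. The concentration for full growth arrest is given as TGI.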

Assays:
Experiment in all cases: inhibition of tumour cell growth, NCI panel, 48 h
CAKI-1 renal = tested on: CAKI-1 renal
NCI-H23 lung = tested on: NCI-H23 lung
MALME-3M melanoma = tested on: MALME-3M melanoma
NCI-H522 lung = tested on: NCI-H522 lung
SW-620 colon = tested on: SW-620 colon
HCC-2998 colon = tested on: HCC-2998 colon
LOX IMVI melanoma = tested on: LOX IMVI melanoma
OVCAR-8 ovarian = tested on: OVCAR-8 ovarian
SK-MEL-28 melanoma = tested on: SK-MEL-28 melanoma
IGROV1 ovarian = tested on: IGROV1 ovarian
MOLT-4 leukemia = tested on: MOLT-4 leukemia
HCT-15 colon = tested on: HCT-15 colon
SNB-75 CNS = tested on: SNB-75 CNS
SNB-19 CNS = tested on: SNB-19 CNS
RXF 393 renal = tested on: RXF 393 renal
SK-OV-3 ovarian = tested on: SK-OV-3 ovarian
SK-MEL-2 melanoma = tested on: SK-MEL-2 melanoma
NCI/ADR-RES ovarian = tested on: NCI/ADR-RES ovarian
NCI-H226 lung = tested on: NCI-H226 lung
PC-3 prostate = tested on: PC-3 prostate
MDA-MB-435 = tested on: MDA-MB-435
M14 melanoma = tested on: M14 melanoma
HT29 colon = tested on: HT29 colon
A549 NSCLC = tested on: A549 NSCLC
UO-31 renal = tested on: UO-31 renal
HL-60(TB) leukemia = tested on: HL-60(TB) leukemia
UACC-257 melanoma = tested on: UACC-257 melanoma
SN12C renal = tested on: SN12C renal
HCT-116 colon = tested on: HCT-116 colon
UACC-62 melanoma = tested on: UACC-62 melanoma
COLO 205 colon = tested on: COLO 205 colon
786-0 renal = tested on: 786-0 renal
KM12 colon = tested on: KM12 colon
OVCAR-4 ovarian = tested on: OVCAR-4 ovarian
MDA-MB-231 breast = tested on: MDA-MB-231 breast
K-562 leukemia = tested on: K-562 leukemia
ACHN renal = tested on: ACHN renal
DU-145 prostate = tested on: DU-145 prostate
EKVX NSCLC = tested on: EKVX NSCLC
BT-549 breast = tested on: BT-549 breast
SF-539 CNS = tested on: SF-539 CNS
OVCAR-3 ovarian = tested on: OVCAR-3 ovarian
SF-268 CNS = tested on: SF-268 CNS
HOP-62 NSCLC = tested on: HOP-62 NSCLC
CCRF-CEM leukemia = tested on: CCRF-CEM leukemia
RPMI-8226 leukemia = tested on: RPMI-8226 leukemia
OVCAR-5 ovarian = tested on: OVCAR-5 ovarian
MDA-N = tested on: MDA-N
TK-10 renal = tested on: TK-10 renal
MCF7 breast = tested on: MCF7 breast
SK-MEL-5 melanoma = tested on: SK-MEL-5 melanoma
U251 CNS = tested on: U251 CNS
HOP-92 NSCLC = tested on: HOP-92 NSCLC
T-47D breast = tested on: T-47D breast
HS 578T breast = tested on: HS 578T breast
A498 renal = tested on: A498 renal
NCI-H460 lung = tested on: NCI-H460 lung
SF-295 CNS = tested on: SF-295 CNS

Q: With COC(=O)Cc1cc2c(cc1C(=O)c1ccc(N)cc1)OCO2 as the molecule, how does the TGI (CAKI-1 renal) read?
A: > 100 µM

Q: What about the TGI (NCI-H23 lung) of the same molecule?
A: > 100 µM

Q: And the TGI (MALME-3M melanoma)?
A: > 100 µM

Q: What about the TGI (NCI-H522 lung) of the same molecule?
A: 1.01 µM

Q: And the TGI (SW-620 colon)?
A: > 100 µM

Q: What about the TGI (HCC-2998 colon) of the same molecule?
A: 3.58 µM

Q: And the TGI (LOX IMVI melanoma)?
A: > 100 µM

Q: And the TGI (OVCAR-8 ovarian)?
A: > 34.5 µM

Q: What about the TGI (SK-MEL-28 melanoma) of the same molecule?
A: > 100 µM

Q: And the TGI (IGROV1 ovarian)?
A: 13 µM

Q: And the TGI (MOLT-4 leukemia)?
A: 33.8 µM

Q: What about the TGI (HCT-15 colon) of the same molecule?
A: > 37.7 µM

Q: And the TGI (SNB-75 CNS)?
A: 5.84 µM

Q: And the TGI (SNB-19 CNS)?
A: > 82.8 µM

Q: What about the TGI (RXF 393 renal) of the same molecule?
A: > 23.9 µM

Q: And the TGI (SK-OV-3 ovarian)?
A: > 29.2 µM

Q: What about the TGI (SK-MEL-2 melanoma) of the same molecule?
A: 5.36 µM

Q: And the TGI (NCI/ADR-RES ovarian)?
A: 15.3 µM

Q: And the TGI (NCI-H226 lung)?
A: > 100 µM

Q: And the TGI (PC-3 prostate)?
A: > 27.2 µM

Q: What about the TGI (MDA-MB-435) of the same molecule?
A: 0.667 µM

Q: And the TGI (M14 melanoma)?
A: > 100 µM

Q: And the TGI (HT29 colon)?
A: 3.99 µM

Q: What about the TGI (A549 NSCLC) of the same molecule?
A: > 77.8 µM

Q: And the TGI (UO-31 renal)?
A: > 100 µM

Q: What about the TGI (HL-60(TB) leukemia) of the same molecule?
A: > 26.2 µM

Q: And the TGI (UACC-257 melanoma)?
A: > 100 µM

Q: What about the TGI (SN12C renal) of the same molecule?
A: > 100 µM

Q: And the TGI (HCT-116 colon)?
A: > 45.9 µM

Q: What about the TGI (UACC-62 melanoma) of the same molecule?
A: > 55 µM

Q: What about the TGI (COLO 205 colon) of the same molecule?
A: 10 µM

Q: What about the TGI (786-0 renal) of the same molecule?
A: > 100 µM

Q: And the TGI (KM12 colon)?
A: > 100 µM

Q: And the TGI (OVCAR-4 ovarian)?
A: > 100 µM

Q: What about the TGI (MDA-MB-231 breast) of the same molecule?
A: > 30.9 µM

Q: What about the TGI (K-562 leukemia) of the same molecule?
A: > 100 µM

Q: What about the TGI (ACHN renal) of the same molecule?
A: > 100 µM

Q: What about the TGI (DU-145 prostate) of the same molecule?
A: > 39.1 µM

Q: What about the TGI (EKVX NSCLC) of the same molecule?
A: > 100 µM

Q: And the TGI (BT-549 breast)?
A: > 20.3 µM

Q: What about the TGI (SF-539 CNS) of the same molecule?
A: > 27.2 µM

Q: What about the TGI (OVCAR-3 ovarian) of the same molecule?
A: 6.99 µM

Q: What about the TGI (SF-268 CNS) of the same molecule?
A: > 30.7 µM

Q: What about the TGI (HOP-62 NSCLC) of the same molecule?
A: > 100 µM

Q: And the TGI (CCRF-CEM leukemia)?
A: 8 µM

Q: And the TGI (RPMI-8226 leukemia)?
A: 6.08 µM

Q: And the TGI (OVCAR-5 ovarian)?
A: 83.3 µM

Q: What about the TGI (MDA-N) of the same molecule?
A: 1.43 µM

Q: What about the TGI (TK-10 renal) of the same molecule?
A: > 100 µM

Q: What about the TGI (MCF7 breast) of the same molecule?
A: > 100 µM

Q: What about the TGI (SK-MEL-5 melanoma) of the same molecule?
A: 4.49 µM

Q: What about the TGI (U251 CNS) of the same molecule?
A: > 100 µM

Q: What about the TGI (HOP-92 NSCLC) of the same molecule?
A: 61 µM

Q: What about the TGI (T-47D breast) of the same molecule?
A: > 100 µM

Q: And the TGI (HS 578T breast)?
A: > 25.4 µM

Q: And the TGI (A498 renal)?
A: > 27.4 µM

Q: And the TGI (NCI-H460 lung)?
A: > 100 µM

Q: What about the TGI (SF-295 CNS) of the same molecule?
A: 5.33 µM

Q: With C=C1CC(C)(COc2ccc3c(C)c(C)c(=O)oc3c2C)OC1=O (stereo not given) as the molecule, how does the TGI (CAKI-1 renal) read?
A: 6.26 µM

Q: And the TGI (NCI-H23 lung)?
A: 5.25 µM

Q: What about the TGI (MALME-3M melanoma) of the same molecule?
A: 5.53 µM

Q: And the TGI (NCI-H522 lung)?
A: 4.28 µM

Q: And the TGI (SW-620 colon)?
A: 3.92 µM

Q: And the TGI (HCC-2998 colon)?
A: 4.49 µM

Q: And the TGI (LOX IMVI melanoma)?
A: 2.91 µM

Q: And the TGI (OVCAR-8 ovarian)?
A: 7.69 µM

Q: What about the TGI (SK-MEL-28 melanoma) of the same molecule?
A: 5.08 µM

Q: What about the TGI (IGROV1 ovarian) of the same molecule?
A: 3.35 µM

Q: And the TGI (MOLT-4 leukemia)?
A: 4.13 µM

Q: What about the TGI (HCT-15 colon) of the same molecule?
A: 4.54 µM

Q: What about the TGI (SNB-75 CNS) of the same molecule?
A: 15.9 µM

Q: What about the TGI (SNB-19 CNS) of the same molecule?
A: 30.4 µM

Q: And the TGI (SK-OV-3 ovarian)?
A: 12.2 µM

Q: What about the TGI (SK-MEL-2 melanoma) of the same molecule?
A: 5.58 µM

Q: And the TGI (NCI/ADR-RES ovarian)?
A: 13.8 µM

Q: What about the TGI (NCI-H226 lung) of the same molecule?
A: 32.6 µM

Q: And the TGI (PC-3 prostate)?
A: 7.08 µM

Q: What about the TGI (MDA-MB-435) of the same molecule?
A: 11.2 µM

Q: What about the TGI (M14 melanoma) of the same molecule?
A: 10.7 µM

Q: What about the TGI (HT29 colon) of the same molecule?
A: 5.39 µM

Q: And the TGI (A549 NSCLC)?
A: 21 µM

Q: What about the TGI (UO-31 renal) of the same molecule?
A: 22.2 µM

Q: And the TGI (HL-60(TB) leukemia)?
A: 0.954 µM

Q: What about the TGI (UACC-257 melanoma) of the same molecule?
A: 6.98 µM

Q: And the TGI (SN12C renal)?
A: 4.28 µM

Q: And the TGI (HCT-116 colon)?
A: 2.41 µM

Q: And the TGI (UACC-62 melanoma)?
A: 2.74 µM

Q: And the TGI (COLO 205 colon)?
A: 2.75 µM

Q: And the TGI (786-0 renal)?
A: 3.24 µM

Q: And the TGI (KM12 colon)?
A: 19.6 µM

Q: And the TGI (OVCAR-4 ovarian)?
A: 19.3 µM

Q: What about the TGI (MDA-MB-231 breast) of the same molecule?
A: 7.8 µM

Q: What about the TGI (K-562 leukemia) of the same molecule?
A: 4.4 µM

Q: What about the TGI (ACHN renal) of the same molecule?
A: 7.45 µM

Q: And the TGI (DU-145 prostate)?
A: 7.08 µM

Q: And the TGI (EKVX NSCLC)?
A: 15.1 µM

Q: And the TGI (BT-549 breast)?
A: 3.07 µM

Q: What about the TGI (SF-539 CNS) of the same molecule?
A: 7.04 µM

Q: And the TGI (OVCAR-3 ovarian)?
A: 14.2 µM

Q: And the TGI (SF-268 CNS)?
A: 15.7 µM

Q: And the TGI (HOP-62 NSCLC)?
A: 28.8 µM

Q: And the TGI (CCRF-CEM leukemia)?
A: 3.2 µM

Q: What about the TGI (RPMI-8226 leukemia) of the same molecule?
A: 2.59 µM

Q: What about the TGI (OVCAR-5 ovarian) of the same molecule?
A: 16.2 µM

Q: What about the TGI (MDA-N) of the same molecule?
A: 4.61 µM

Q: What about the TGI (TK-10 renal) of the same molecule?
A: 3.08 µM

Q: And the TGI (MCF7 breast)?
A: 2.84 µM

Q: And the TGI (SK-MEL-5 melanoma)?
A: 3.73 µM

Q: And the TGI (U251 CNS)?
A: 18.9 µM

Q: And the TGI (HOP-92 NSCLC)?
A: 2.76 µM

Q: What about the TGI (T-47D breast) of the same molecule?
A: 3.09 µM

Q: And the TGI (HS 578T breast)?
A: 15.1 µM

Q: What about the TGI (A498 renal) of the same molecule?
A: 4.26 µM

Q: And the TGI (NCI-H460 lung)?
A: 19.6 µM

Q: And the TGI (SF-295 CNS)?
A: 16.1 µM
